# According to patent publication US9695155B2, “Herbicidal substituted pyrimidinyloxy benzene compounds” (E. I. DU PONT DE NEMOURS AND COMPANY, priority 2013, dated 2017):
# Tests used:
# kochia [1] = experiment: Test A preemergence; assay type: in vivo, Kochia scoparia; details: 0 to 100 scale where 0 is no effect and 100 is complete control
# Summary of the method: (§1)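 Pre- and postemergence greenhouse screen. Soil: loam + sand. Spray carrier: solvent mixture, non-phytotoxic, with surfactant. Post timing at 1–2 leaves, height 2–10 cm. Readout: visual injury on a 0–100 scale roughly 10 days after application, untreated plants as reference.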
# ragweed [2] = experiment: Test A preemergence; assay type: in vivo, Ambrosia elatior; details: 0 to 100 scale where 0 is no effect and 100 is complete control
# Summary of the method: as §1
# Italian ryegrass [3] = experiment: Test A preemergence; assay type: in vivo, Lolium multiflorum; details: 0 to 100 scale where 0 is no effect and 100 is complete control
# Summary of the method: as §1
# kochia [4] = experiment: Test A postemergence; assay type: in vivo, Kochia scoparia; details: 0 to 100 scale where 0 is no effect and 100 is complete control
# Summary of the method: as §1
# ragweed [5] = experiment: Test A postemergence; assay type: in vivo, Ambrosia elatior; details: 0 to 100 scale where 0 is no effect and 100 is complete control
# Summary of the method: as §1
# galium = experiment: Test A postemergence; assay type: in vivo, Galium aparine; details: 0 to 100 scale where 0 is no effect and 100 is complete control
# Summary of the method: as §1
# blackgrass = experiment: Test C preemergence; assay type: in vivo, Alopecurus myosuroides; details: for Blackgrass plant response rating: preemergence
# Summary of the method: (§2)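 Plants were kept under greenhouse conditions for 13–15 days following spray. Pre-emergent application went to soil (loam–sand), post-emergent to foliage at 1–4 leaves. Evaluation: visual, percent control against untreated checks.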
# Italian ryegrass [6] = experiment: Test C preemergence; assay type: in vivo, Lolium multiflorum; details: for Ryegrass, Italian plant response rating: preemergence
# Summary of the method: as §2
# wheat, winter = experiment: Test C preemergence; assay type: in vivo, Triticum aestivum; details: for Wheat plant response rating: preemergence
# Summary of the method: as §2
# large (Lg) crabgrass = experiment: Test C preemergence; assay type: in vivo, Digitaria sanguinalis; details: for Crabgrass, Large plant response rating: preemergence
# Summary of the method: as §2
# giant foxtail = experiment: Test C preemergence; assay type: in vivo, Setaria faberii; details: for Foxtail, Giant plant response rating: preemergence
# Summary of the method: as §2
# johnsongrass = experiment: Test C preemergence; assay type: in vivo, Sorghum halepense; details: for Johnsongrass plant response rating: preemergence
# Summary of the method: as §2
# pigweed = experiment: Test C preemergence; assay type: in vivo, Amaranthus retroflexus; details: for Pigweed plant response rating: preemergence
# Summary of the method: as §2
# ragweed [7] = experiment: Test C preemergence; assay type: in vivo, Ambrosia elatior; details: for Ragweed plant response rating: preemergence
# Summary of the method: as §2
# soybean = experiment: Test C preemergence; assay type: in vivo, Glycine max; details: for Soybean plant response rating: preemergence
# Summary of the method: as §2
# barnyardgrass = experiment: Test C preemergence; assay type: in vivo, Echinochloa crus-galli; details: for Barnyardgrass plant response rating: preemergence
# Summary of the method: as §2
# oilseed rape = experiment: Test C preemergence; assay type: in vivo, Brassica napus; details: for Oilseed Rape plant response rating: preemergence
# Summary of the method: as §2
# waterhemp = experiment: Test C preemergence; assay type: in vivo, Amaranthus rudis; details: for Waterhemp plant response rating: preemergence
# Summary of the method: as §2
# velvetleaf = experiment: Test C preemergence; assay type: in vivo, Abutilon theophrasti; details: for Velvetleaf plant response rating: preemergence
# Summary of the method: as §2
# [8] = 8 g ai/ha, scale 0 to 100 (0 no effect, 100 complete control)
# [9] = 16 g ai/ha, scale 0 to 100 (0 no effect, 100 complete control)
# [10] = 62 g ai/ha, scale 0 (no effect) to 100 (complete control)
# [11] = Preemergence, 31 g ai/ha, scale 0 to 100, 0 no effect, 100 complete control
smiles,measurement,setting,value
N#Cc1cnn(-c2c(C#N)cccc2Oc2ncc(Br)cn2)c1 [Compound 135],"Plant response rating, Kochia",kochia [1]; 125 g ai/ha,100
same,Kochia plant response rating,kochia [1]; 500 g ai/ha,100
same,"Plant response rating, Ragweed",ragweed [2]; 125 g ai/ha,90
same,Ragweed plant response rating,ragweed [2]; 500 g ai/ha,90
same,"Plant response rating, Ryegrass, Italian",Italian ryegrass [3]; 125 g ai/ha,0
same,"Ryegrass, Italian plant response rating",Italian ryegrass [3]; 500 g ai/ha,20
same,Kochia plant response rating,kochia [4]; 125 g ai/ha,20
same,"Plant response rating, Kochia",kochia [4]; 500 g ai/ha,70
same,Ragweed plant response rating,ragweed [5]; 125 g ai/ha,60
same,"Plant response rating, Ragweed",ragweed [5]; 500 g ai/ha,100
same,Galium plant response rating,galium; 125 g ai/ha,60
same,"Plant response rating, Galium",galium; 500 g ai/ha,90
same,Blackgrass plant response rating,blackgrass; [8],0
same,Blackgrass plant response rating,blackgrass; [9],0
same,Blackgrass plant response rating,blackgrass; [10],20
same,"Plant response rating, Blackgrass",blackgrass; [11],5
same,"Ryegrass, Italian plant response rating",Italian ryegrass [6]; [8],0
same,"Ryegrass, Italian plant response rating",Italian ryegrass [6]; [9],0
same,"Ryegrass, Italian plant response rating",Italian ryegrass [6]; [10],10
same,"Plant response rating, Ryegrass, Italian",Italian ryegrass [6]; [11],5
same,Wheat plant response rating,"wheat, winter; [8]",0
same,Wheat plant response rating,"wheat, winter; [9]",0
same,Wheat plant response rating,"wheat, winter; [10]",0
same,"Plant response rating, Wheat","wheat, winter; [11]",0
same,"Crabgrass, Large plant response rating",large (Lg) crabgrass; [8],45
same,"Crabgrass, Large plant response rating",large (Lg) crabgrass; [9],60
same,"Crabgrass, Large plant response rating",large (Lg) crabgrass; [10],100
same,"Plant response rating, Crabgrass, Large",large (Lg) crabgrass; [11],100
same,"Foxtail, Giant plant response rating",giant foxtail; [8],0
same,"Foxtail, Giant plant response rating",giant foxtail; [9],5
same,"Foxtail, Giant plant response rating",giant foxtail; [10],70
same,"Plant response rating, Foxtail, Giant",giant foxtail; [11],70
same,Johnsongrass plant response rating,johnsongrass; [8],0
same,Johnsongrass plant response rating,johnsongrass; [9],0
same,Johnsongrass plant response rating,johnsongrass; [10],45
same,"Plant response rating, Johnsongrass",johnsongrass; [11],5
same,Pigweed plant response rating,pigweed; [8],50
same,Pigweed plant response rating,pigweed; [9],85
same,Pigweed plant response rating,pigweed; [10],98
same,"Plant response rating, Pigweed",pigweed; [11],80
same,Ragweed plant response rating,ragweed [7]; [8],0
same,Ragweed plant response rating,ragweed [7]; [9],40
same,Ragweed plant response rating,ragweed [7]; [10],65
same,"Plant response rating, Ragweed",ragweed [7]; [11],55
same,Soybean plant response rating,soybean; [8],10
same,Soybean plant response rating,soybean; [9],20
same,Soybean plant response rating,soybean; [10],85
same,"Plant response rating, Soybean",soybean; [11],65
same,Barnyardgrass plant response rating,barnyardgrass; [8],0
same,Barnyardgrass plant response rating,barnyardgrass; [9],0
same,Barnyardgrass plant response rating,barnyardgrass; [10],60
same,"Plant response rating, Barnyardgrass",barnyardgrass; [11],15
same,Oilseed Rape plant response rating,oilseed rape; [8],30
same,Oilseed Rape plant response rating,oilseed rape; [9],55
same,Oilseed Rape plant response rating,oilseed rape; [10],95
same,"Plant response rating, Oilseed Rape",oilseed rape; [11],95
same,Waterhemp plant response rating,waterhemp; [8],55
same,Waterhemp plant response rating,waterhemp; [9],75
same,Waterhemp plant response rating,waterhemp; [10],100
same,"Plant response rating, Waterhemp",waterhemp; [11],100
same,Velvetleaf plant response rating,velvetleaf; [8],5
same,Velvetleaf plant response rating,velvetleaf; [9],40
same,Velvetleaf plant response rating,velvetleaf; [10],85
same,"Plant response rating, Velvetleaf",velvetleaf; [11],45
